Data as given in patent US7189680B2, “5-halo-6-aryl[1,2,4]triazolo[1,5-a]pyrimidin-7-amines” (Bayer Cropscience AG, priority 2001, dated 2007).

Legend:
Venturia inaequalis = experiment: Venturia test (apple)/protective; assay type: in vivo; settings: protective, 100 g/ha, evaluation 10 days following inoculation
Experimental: (§1) To produce a suitable preparation of active compound, one part by weight of active compound is mixed with the stated amounts of solvent and emulsifier, and the concentrate is diluted with water to the desired concentration.
To test for protective activity, young plants are sprayed with the active compound preparation at the application rate indicated. After the spray coating has dried on, the plants are inoculated with an aqueous conidia suspension of the apple scab causative organism, Venturia inaequalis, and then remain in an incubation cabin for 1 day at about 20° C. and 100% relative humidity.
The plants are placed in a greenhouse at a temperature of about 15° C. and a relative humidity of about 90%.
Evaluation is made 10 days following inoculation. 0% denotes an efficacy corresponding to that of the control, whereas an efficacy of 100% means that no infestation is observed.

[1] = test system: Fusarium nivale (var. majus); experiment: Fusarium nivale (var. majus) test (wheat)/protective; assay type: in vivo; settings: protective, 500 g/ha, evaluation 4 days following inoculation
Experimental: as §1
To test for protective activity, young plants are sprayed with the active compound preparation at the application rate indicated. After the spray coating has dried on, the plants are sprayed with a conidia suspension of Fusarium nivale (var. majus).
The plants are placed in a greenhouse under transparent incubation hoods at a temperature of about 15° C. and a relative humidity of about 100%.
Evaluation is made 4 days following inoculation. 0% denotes an efficacy corresponding to that of the control, whereas an efficacy of 100% means that no infestation is observed.

| Structure (SMILES) | Efficacy in % [1] [%] | further results |
| --- | --- | --- |
| CN(C)Nc1c(-c2c(F)cc(F)cc2F)c(Cl)nc2ncnn12 [drawing 46] | – | Efficacy in % (Venturia inaequalis): 94% |
| CCCN(N)c1c(-c2c(F)cc(F)cc2F)c(Cl)nc2ncnn12 [drawing 43] | 80 | – |
| CNN(C)c1c(-c2c(F)cc(F)cc2F)c(Cl)nc2ncnn12 [drawing 45] | 93 | – |
| CCN(N)c1c(-c2c(F)cc(F)cc2F)c(Cl)nc2ncnn12 [drawing 44] | 80 | – |
| CN(C)Nc1c(-c2c(F)cc(F)cc2F)c(Cl)nc2ncnn12 [Example 1, 5-chloro-7-(2,2-dimethylhydrazino)-6-(2,4,6-trifluorophenyl)[1,2,4]-triazolo[1,5-a]pyrimidine] | – | melting point: 165 to 168 °C |
